Read-outs that look alike come from different tables or passages of the source.
Columns and labels:
[1] = test system: L. (L.) infantum promastigotes; assay: Promastigote viability, MTT colorimetric method; type: cell-based, Leishmania (L.) infantum
Description: Promastigotes (1 × 10^6 parasites/well) in 96-well plates were incubated with the four compounds (150 to 1.2 μM) for 96 h at 24 °C. The parasite viability was determined using the MTT colorimetric method. Miltefosine was used as standard, with untreated cells as a negative control. A parallel promastigote activity assay was performed for 2 h with compound 2 (200 to 1.56 μM) for mechanism of action studies. After this period of incubation with compound 2, the parasites were washed twice with M-199 medium and the parasite viability was determined using the MTT colorimetric method for 4 h incubation at 24 °C.

[2] = test system: Fibroblast NCTC cells clone 929; assay: Mammalian cytotoxicity, MTT colorimetric method; type: cell-based, murine; settings: up to 200 μM, read-out: CC50 (µM) ± SD NCTC
Description: (§1) Fibroblast NCTC cells clone 929 (6 × 10^4 cells/well) in 96-well plates were incubated with the compounds up to 200 μM in a 5% CO2 humidified incubator at 37 °C. CC50 was determined by the MTT colorimetric method. The selectivity index was determined using the following equation: CC50 against NCTC cells/IC50 against amastigotes

[3] = test system: intracellular amastigotes of L. (L.) infantum; assay: Intracellular amastigotes in peritoneal macrophages, light microscopy counting (infection index); type: cell-based, Leishmania (L.) infantum; settings: for IC50: intracellular amastigotes in peritoneal macrophages, 96 h, read-out: IC50 (µM) ± SD Amastigote
Description: Peritoneal macrophages (1 × 10^5 cell/well) in 16-well slide chambers (NUNC) were infected with amastigotes at a ratio of 10:1 (amastigotes/macrophage) and treated with compounds (60 to 10 µM) for 96 h. Stained slides (Giemsa) were counted using light microscopy and IC50 determined by the infection index. Miltefosine was used as standard and untreated cells as a negative control.

[4] = test system: L. (L.) infantum promastigotes; assay: Cell cycle analysis, propidium iodide, flow cytometry; type: cell-based, Leishmania (L.) infantum; settings: 24 h; compound 2 190 µM, miltefosine 25 μM
Description: Promastigotes (2 × 10^6 parasites/well) in mid-log phase were incubated with compound 2 (190 µM) in M-199 medium for 24 h at 24 °C. Parasites were washed and fixed in 70% ice-cold ethanol overnight at −20 °C. After a further wash with PBS 1x, the promastigotes were ressuspended in propidium iodide (10 µg/mL, Molecular Probes) and RNase A (20 µg/mL, Molecular Probes) for 30 min in the dark at room temperature. The fluorescence intensity was analyses using Attune NxT flow cytometer (Thermo Fisher Scientific) with excitation filter wavelengths of 488 nm and emission of 574 nm (BL-2)[47]. Maximum change in the cell cycle was obtained in the presence of miltefosine (25 μM) and untreated parasites were used as negative control. Unstained parasites were used to set background fluorescence.

[5] = test system: L. (L.) infantum promastigotes; assay: Intracellular calcium levels, Fura-2 AM; type: cell-based, Leishmania (L.) infantum; settings: 190 µM, 5, 20, 60 and 120 min
Description: Promastigotes (2 × 10^6 parasites/well) were pretreated with 5 µM of Fura-2 AM (Molecular Probes) in PBS 1x, for 40 min at 24 °C in the dark. The parasites were washed and treated with compound 2 (190 µM). The fluorescence was measured at 5, 20, 60 and 120 min, using a fluorimetric microplate reader (FilterMax F5 Multi-Mode, Molecular Devices) with excitation and emission wavelengths of 360 and 500 nm, respectively. Maximum levels of calcium were obtained using 0.5% Triton X-100 and untreated parasites were used as negative control.

[6] = test system: L. (L.) infantum promastigotes; assay: Plasma membrane electric potential, DiSBAC2(3), flow cytometry; type: cell-based, Leishmania (L.) infantum
Description: Promastigotes (2 × 10^6 parasites/well) were treated with compound 2 (190 µM) for 1 and 2 h in HBSS + Glu at 24 °C. DiSBAC2(3) (Molecular Probes) were added (0.2 µM) and the parasites were incubated by 5 min[47]. The fluorescence was measure using Attune NxT flow cytometer (Thermo Fisher Scientific) with excitation and emission wavelengths of 488 and 574 nm (BL-2), respectively. Raloxifene (60 μM) was used as positive control and untreated parasites were used as negative control. Unstained parasites were used to set background fluorescence.

[7] = test system: L. (L.) infantum promastigotes; assay: Mitochondrial membrane electric potential, JC-1, flow cytometry; type: cell-based, Leishmania (L.) infantum; settings: 190 µM, 1 and 2 h, compared to untreated parasites
Description: Promastigotes (2 × 10^6 parasites/well) were treated for 1 and 2 h with compound 2 (190 µM) in HBSS + Glu at 24 °C. JC-1 dye (Molecular Probes) was added at a final concentration of 10 μM. The parasites were incubated in the dark for 20 min and washed to eliminate the non-internalized dye. The fluorescence was measure using Attune NxT flow cytometer (Thermo Fisher Scientific) with excitation filter wavelengths of 488 nm and emission of 530 (BL-1) and 574 nm (BL-2). The mitochondrial membrane potential was determined using BL-2/BL-1 ratio[49]. Maximum depolarization was obtained in the presence of CCCP (100 μM) and untreated parasites were used as negative control. Unstained parasites were used to set background fluorescence.

[8] = test system: L. (L.) infantum promastigotes; assay: ATP levels, bioluminescence assay; type: cell-based, Leishmania (L.) infantum; settings: 190 µM, 1 and 2 h, compared to untreated parasites
Description: Promastigotes (2 × 10^6 parasites/well) were treated with compound 2 (190 µM) in HBSS + Glu for 1 and 2 h at 24 °C. Untreated parasites and treated with CCCP (25 µM) were included as negative and positive controls, respectively. The promastigotes were lysed using 0.5% Triton X-100 and mixed with a standard reaction buffer (ATP Determination Kit, Molecular Probes) containing DTT (1 mM), luciferin (0.5 mM) and firefly luciferase (1.25 µg/mL)[50]. Luminescence intensity was measured using a luminometer (FilterMax F5 Multi-Mode, Molecular Devices) and the amount of ATP was calculated from an ATP standard curve.

[9] = test system: L. (L.) infantum promastigotes; type: cell-based, Leishmania (L.) infantum
Description: Promastigotes (2 × 10^6 parasites/well) were incubated in 96-well black polystyrene microplates with 1 µM of Sytox Green (Molecular Probes) in HANKS’ balanced salt solution (Sigma-Aldrich) supplemented with 10 mM D-Glucose (Sigma-Aldrich, HBSS + Glu) at 24 °C for 15 min in the dark[45]. Compound 2 (190 µM) was added and the fluorescence was measured every 20 min for up to 2 h, using a fluorimetric microplate reader (FilterMax F5 Multi-Mode, Molecular Devices) with excitation and emission wavelengths of 485 and 520 nm, respectively. Maximum permeabilization was obtained using 0.5% Triton X-100 and untreated parasites were used as negative control.

[10] = test system: L. (L.) infantum promastigotes; assay: Ultrastructural analysis by transmission electron microscopy; type: cell-based, Leishmania (L.) infantum; parameters: dose or concentration left out as unconfirmed; settings: (figure legend), 4 and 6 h
Description: […] Then, the parasites were washed, fixed in 2.5% glutaraldehyde in 0.1 M sodium cacodylate buffer (pH 7.3), postfixed in 1% osmium tetroxide. The parasites were dehydrated with acetone series and embedded in Epon resin. Ultrathin sections were stained with uranyl acetate and lead citrate. The material was analyzed under transmission electron microscopy (JEOL JEM-1011). Untreated parasites were used as negative control.

[11] = test system: bone marrow-derived macrophages, uninfected and infected with L. (L.) infantum; assay: Cytokine level quantification, CBA Mouse Inflammation Kit, flow cytometry; type: cell-based, BALB/c mice; settings: 48 h
Description: Bone marrow-derived macrophages (5 × 10^5 cells/well) in 24-well plates were infected with amastigotes at a ratio of 10:1 (amastigotes/macrophage) and kept at 37 °C in a 5% CO2 humidified incubator. Cell were treated with compound 2 (60 to 7.5 µM) for 48 h and the supernatant was collected and cytokine quantification was achieved using the CBA Mouse Inflammation Kit (BD Biosciences) according to the manufacturer’s instructions. The fluorescence was measured using BD LSRFortessa flow cytometer (BD Biosciences) and the data analysis was performed using the software FCAP Array (v.3). LPS (50 μg/mL) was used as positive control and untreated parasites were used as negative control.

[12] = test system: Trypanosoma cruzi parasites; settings: cited from earlier work
[13] = test system: Trypanosoma cruzi parasites; parameters: method as in PMID 28864277; settings: cited from earlier work
[14] = Mammalian cytotoxicity, MTT colorimetric method; type: cell-based, murine; settings: mouse, NCTC clone 929 fibroblast cells, up to 200 μM, read-out: CC50 (µM) ± SD NCTC
Description: as §1

Leishmania = settings: cited from earlier work
L. (L.) amazonensis = test system: L. (L.) amazonensis; parameters: method as in PMID 20064628; settings: cited from earlier work
[15] = 96 h at 24 °C, MTT, read-out: IC50 (µM) ± SD Promastigote

## 1-Propyl-3-(1′-propyl-3′-methoxyphenoxy)-4,5-dimethoxybenzene [Compound 3]
[1]; [15]
  IC50: 29.6 ± 2.3 µM
[2]
  CC50: 57.7 ± 1.1 µM
[3]
  IC50: 21.7 ± 1.9 µM

## 1-Propyl-3-(1′-propyl-3′-methoxyphenoxy)-5-methoxy-4-benzoyloxybenzene [Compound 2]
[4]
  Proportion of promastigotes in different stages of cell cycle (% ± SD) G0/G1: 52.3 ± 1.1 %
  Proportion of promastigotes in different stages of cell cycle (% ± SD) M/G2: 26.4 ± 0.1 %
  Proportion of promastigotes in different stages of cell cycle (% ± SD) S: 13.7 ± 0.7 %
  Proportion of promastigotes in different stages of cell cycle (% ± SD) Sub G0: 3.0 ± 0.2 %
[1]; [15]
  IC50: 105 ± 9.4 µM
[1]; after 2 h of incubation, used for mechanism of action assays, read-out: second IC50 value against promastigotes
  IC50: 190 µM
[5]
  cytosolic Ca2+ levels (Fura-2 AM): induced a fast up-regulation of calcium levels, in a time-dependent manner
[6]; 190 µM, 1 and 2 h, compared with untreated parasites
  plasma membrane electric potential (ΔΨp), DiSBAC2(3) fluorescence: induced a significant (p < 0.0001) depolarization of the potential
[7]
  mitochondrial membrane electric potential (ΔΨm), JC-1 BL-2/BL-1 ratio: induced a significant (p < 0.0001) depolarization of the mitochondrial membrane potential
[8]
  ATP concentration: dose-dependent decrease of ATP concentration
[9]
  plasma membrane permeability (Sytox Green fluorescence): No changes in the fluorescence levels were observed
[10]
  ultrastructural alterations (TEM): intense swelling of the mitochondria with severe loss of cristae and matrix and concentric membranous structures inside this organelle
[2]
  CC50: > 200 µM
[3]; at the highest tested concentration
  amastigotes eliminated: 100%
[3]
  IC50: 6.1 ± 1.2 µM
[11]; 60 μM, both macrophage groups
  MCP-1 levels: decrease this chemokine in both macrophage groups
[11]; infected macrophages at 30 and 15 μM, uninfected at 60 and 30 μM
  TNF production: reduced the TNF production

## C=CCc1ccc(Oc2cc([C@@H](O)C=C)cc(OC)c2OC)c(OC)c1 [1-[(7S)-hydroxy-8-propenyl]-3-[3′-methoxy-1′-(8′-propenyl)-phenoxy]-4,5-methoxybenzene]
[12]
  plasma membrane permeabilization: plasma membrane permeabilization was verified
[13]
  depolarization of the mitochondrial membrane: induce depolarization of the mitochondrial membrane

## CCCCCCCCCCCCCCCCOP(=O)([O-])OCC[N+](C)(C)C [Miltefosine, reference compound]
[4]
  Proportion of promastigotes in different stages of cell cycle (% ± SD) G0/G1: 36.4 ± 1.3 %
  Proportion of promastigotes in different stages of cell cycle (% ± SD) M/G2: 31.4 ± 0.5 %
  Proportion of promastigotes in different stages of cell cycle (% ± SD) S: 12.3 ± 0.1 %
  Proportion of promastigotes in different stages of cell cycle (% ± SD) Sub G0: 10.1 ± 0.2 %
[1]; Leishmania infantum, 96 h at 24 °C, MTT, read-out: IC50 (µM) ± SD Promastigote
  IC50: 5.1 ± 0.6 µM
[14]
  CC50: 120 ± 4.2 µM
[3]; Leishmania infantum, Peritoneal macrophage
  IC50: 6.5 ± 3 µM
[3]; ratio between CC50 in NCTC cells and IC50 in intracellular amastigotes
  SI (Selectivity Index): 18.4

## O=C(c1ccc(OCCN2CCCCC2)cc1)c1c(-c2ccc(O)cc2)sc2cc(O)ccc12 [Raloxifene, reference compound]
[6]; positive control, 60 μM
  plasma membrane electric potential (ΔΨp), DiSBAC2(3) fluorescence: caused increased levels of fluorescence

## C=CCc1ccc(Oc2cc(CC=C)cc(OC)c2O)c(OC)c1 [dehydrodieugenol B]
[12]
  plasma membrane permeabilization: plasma membrane permeabilization was verified

## C/C=C/c1cc(OC)c2c(c1)[C@H](C)[C@@H](c1ccc(O)c(OC)c1)O2 [licarin A]
Leishmania
  anti-Leishmania effect and NO upregulation: anti-Leishmania effect without NO upregulation

## eupomatenoid-5
L. (L.) amazonensis
  depolarization of the mitochondrial membrane: induce depolarization of the mitochondrial membrane

— PMC6467890, “A semi-synthetic neolignan derivative from dihydrodieugenol B selectively affects the bioenergetic system of Leishmania infantum and inhibits cell division” (Scientific Reports, 2019)
